{"source": "patent US5559209A", "about": "“Regulator regions of G proteins” (The General Hospital Corporation, priority 1993, dated 1996)", "key": {"[1]": {"target": "T1, Gi3 (Bos taurus, UniProt Q3ZCA7)", "T1 construct": "was purified from bovine spleen and used in combination with 1.5-fold concentrated Gβγ; from tissue; host or cells: bovine spleen (Gi3 α); bovine brain (Gβγ)", "T1 sequence (Q3ZCA7 2-354 limits assumed)": "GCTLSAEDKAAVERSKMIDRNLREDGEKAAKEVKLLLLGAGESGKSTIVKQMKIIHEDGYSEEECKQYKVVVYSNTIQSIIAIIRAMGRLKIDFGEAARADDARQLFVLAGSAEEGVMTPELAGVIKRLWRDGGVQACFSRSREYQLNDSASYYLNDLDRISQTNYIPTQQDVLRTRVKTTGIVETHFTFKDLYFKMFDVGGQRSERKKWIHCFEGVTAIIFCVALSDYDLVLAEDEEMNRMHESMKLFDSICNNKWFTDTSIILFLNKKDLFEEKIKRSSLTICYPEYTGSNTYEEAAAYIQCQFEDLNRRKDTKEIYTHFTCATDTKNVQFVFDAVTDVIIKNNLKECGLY", "T1 sequence (P62871 2-340 partner limits assumed)": "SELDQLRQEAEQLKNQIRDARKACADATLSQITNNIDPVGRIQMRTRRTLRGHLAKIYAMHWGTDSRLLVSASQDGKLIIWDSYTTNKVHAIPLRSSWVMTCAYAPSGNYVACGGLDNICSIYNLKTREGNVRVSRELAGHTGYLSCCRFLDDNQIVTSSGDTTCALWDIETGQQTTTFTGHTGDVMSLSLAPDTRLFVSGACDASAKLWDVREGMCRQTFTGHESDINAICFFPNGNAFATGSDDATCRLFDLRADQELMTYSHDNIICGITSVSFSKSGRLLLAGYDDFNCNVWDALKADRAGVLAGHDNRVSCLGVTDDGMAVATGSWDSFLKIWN", "T1 sequence (P63212 2-68 partner limits assumed)": "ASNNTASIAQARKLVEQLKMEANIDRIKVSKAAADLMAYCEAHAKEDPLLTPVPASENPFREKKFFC", "assay": "GTPγS binding, peptide 14-induced Gi3 activation", "assay_type": "biochemical, bovine", "settings": "10 nM Gi3, 30 μM peptide 14, 4 min", "experimental": "(§1) Materials and Methods The in vitro assays described below utilize the couplone portion of each of a number of G-coupled receptors, instead of an intact receptor molecule, as a means for activating the corresponding anticouplone or intact G-protein. […]\n(§2) GTPγS binding Assay--GTPγS binding to G proteins was assayed at 37° C. in 20 mM Hepes/NaOH buffer (pH 7.4) containing 130 μM MgCl2, 110 μM EDTA and 60 nM [^35 S]GTPγS, as described previously (Okamoto et al., 1990). […] The total amount of G protein was measured as maximal GTPγS binding at room temperature, as described (Okamoto et al., Cell 67:723-730, 1991a). […] Thus, the apparent first-order rate constant for GTPγS binding (kapp), which is equal to the slope of the tangent to the GTPγS binding curve at time 0 and represents the actual GTPγS binding rate, was calculated from this equation.\nPeptide 14 is capable of activating Gi1 and Gi3 as well as Gi2 (Okamoto et al., 1990). The effect of ACGi2 on peptide 14-induced activation of these Gi proteins was examined as follows: 10 nM Gi1 (.quadrature.) or Gi3 (.diamond-solid.) was incubated with 30 μM peptide 14 in the presence of various concentrations of ACGi2 for 4 min, and GTPβS binding was measured. […]"}, "[2]": {"target": "T2, mAChR-Gi2 coupling (Bos taurus, UniProt A7MBH9)", "T2 construct": "trimeric Gi2 purified from bovine spleen to homogeneity; from tissue; host or cells: bovine spleen (Gi2); porcine brain (mAChR)", "T2 sequence (A7MBH9 2-355 limits assumed)": "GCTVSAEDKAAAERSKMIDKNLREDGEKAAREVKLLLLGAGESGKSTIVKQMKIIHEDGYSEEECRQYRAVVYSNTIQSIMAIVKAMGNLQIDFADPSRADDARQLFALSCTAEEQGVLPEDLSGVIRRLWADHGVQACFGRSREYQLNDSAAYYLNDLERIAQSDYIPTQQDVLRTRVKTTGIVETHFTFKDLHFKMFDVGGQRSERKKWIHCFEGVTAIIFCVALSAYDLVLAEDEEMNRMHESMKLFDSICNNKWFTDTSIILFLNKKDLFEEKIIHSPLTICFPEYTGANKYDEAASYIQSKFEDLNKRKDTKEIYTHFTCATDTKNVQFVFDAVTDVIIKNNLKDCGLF", "T2 sequence (P62871 2-340 partner limits assumed)": "as the sequence (P62871 2-340 partner limits assumed) above", "T2 sequence (P63212 2-68 partner limits assumed)": "as the sequence (P63212 2-68 partner limits assumed) above", "assay": "GTPγS binding rate in mAChR-Gi2 reconstituted phospholipid vesicles", "assay_type": "biochemical, porcine mAChR, bovine Gi2", "settings": "30 μM ACGi2, 10 mM acetylcholine; read-out: inhibition of acetylcholine-induced Gi2 activation", "experimental": "as §1\nas §2, with “equation. […]” for “equation.”"}, "[3]": {"target": "T3, Gi2 (Bos taurus, UniProt A7MBH9)", "T3 construct": "trimeric Gi2 (i.e., Gi2 αβγ) purified from bovine brain to near homogeneity; from tissue; host or cells: bovine brain", "T3 sequence (A7MBH9 2-355 limits assumed)": "as the sequence (A7MBH9 2-355 limits assumed) above", "T3 sequence (P62871 2-340 partner limits assumed)": "as the sequence (P62871 2-340 partner limits assumed) above", "T3 sequence (P63212 2-68 partner limits assumed)": "as the sequence (P63212 2-68 partner limits assumed) above", "assay": "GTPγS binding, MIII-induced Gi2 activation", "assay_type": "biochemical, bovine", "settings": "10 nM Gi2, 1 μM MIII, 5 min; read-out: IC50, attenuation of MIII-induced Gi2 activation", "experimental": "as §1, §2\nThe MIII peptide is a Gi /Go -activator region in the third intracellular loop of the G-coupled receptor termed M4 AChR (Okamoto et al., J. Biol. Chem. 267:8342-8346, 1992). […] In the experiments illustrated in FIG. 1D, 10 nM Go (.quadrature.) or Gi2 (.diamond-solid.) was incubated with 1 μM MIII for 2 or 5 min, respectively, and GTPγS binding was measured in the same manner as in FIG. 1A. […]"}, "[4]": {"target": "Go (Homo sapiens, UniProt P09471)", "sequence (P09471 2-354 limits assumed)": "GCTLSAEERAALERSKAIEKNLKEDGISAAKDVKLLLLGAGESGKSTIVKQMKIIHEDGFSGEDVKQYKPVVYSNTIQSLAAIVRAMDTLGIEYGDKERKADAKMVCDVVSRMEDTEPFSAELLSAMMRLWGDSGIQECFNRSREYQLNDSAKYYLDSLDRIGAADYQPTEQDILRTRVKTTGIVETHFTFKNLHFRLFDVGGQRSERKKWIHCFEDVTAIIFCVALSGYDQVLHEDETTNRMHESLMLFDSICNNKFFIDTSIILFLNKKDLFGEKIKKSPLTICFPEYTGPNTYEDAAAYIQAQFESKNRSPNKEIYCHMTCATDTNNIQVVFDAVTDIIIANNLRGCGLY", "sequence (P62873 2-340 partner limits assumed)": "as the sequence (P62871 2-340 partner limits assumed) above", "sequence (P59768 2-68 partner limits assumed)": "as the sequence (P63212 2-68 partner limits assumed) above", "assay": "GTPγS binding, MIII-induced Go activation", "assay_type": "biochemical", "settings": "10 nM Go, 1 μM MIII, 2 min", "experimental": "(§3) GTPγS binding Assay--GTPγS binding to G proteins was assayed at 37° C. in 20 mM Hepes/NaOH buffer (pH 7.4) containing 130 μM MgCl2, 110 μM EDTA and 60 nM [^35 S]GTPγS, as described previously (Okamoto et al., 1990). GTPγS binding to polypeptides was negligible. The total amount of G protein was measured as maximal GTPγS binding at room temperature, as described (Okamoto et al., Cell 67:723-730, 1991a). [^35 S]GTPγS was purchased from DuPont-New England Nuclear. Binding of GTPγS to G proteins obeyed first-order kinetics according to the equation ln[(BT-B)/BT]=-kapp t, where B is the binding at time t and BT is the total binding observable at an infinite time. Thus, the apparent first-order rate constant for GTPγS binding (kapp), which is equal to the slope of the tangent to the GTPγS binding curve at time 0 and represents the actual GTPγS binding rate, was calculated from this equation.\nThe MIII peptide is a Gi /Go -activator region in the third intracellular loop of the G-coupled receptor termed M4 AChR (Okamoto et al., J. Biol. Chem. 267:8342-8346, 1992). This peptide has the sequence RNQVRKKRQMAARERKVTR (SEQ ID NO: 30). In the experiments illustrated in FIG. 1D, 10 nM Go (.quadrature.) or Gi2 (.diamond-solid.) was incubated with 1 μM MIII for 2 or 5 min, respectively, and GTPγS binding was measured in the same manner as in FIG. 1A. […]"}, "[5]": {"target": "Gi1 (Bos taurus, UniProt P63097)", "sequence (P63097 2-354 limits assumed)": "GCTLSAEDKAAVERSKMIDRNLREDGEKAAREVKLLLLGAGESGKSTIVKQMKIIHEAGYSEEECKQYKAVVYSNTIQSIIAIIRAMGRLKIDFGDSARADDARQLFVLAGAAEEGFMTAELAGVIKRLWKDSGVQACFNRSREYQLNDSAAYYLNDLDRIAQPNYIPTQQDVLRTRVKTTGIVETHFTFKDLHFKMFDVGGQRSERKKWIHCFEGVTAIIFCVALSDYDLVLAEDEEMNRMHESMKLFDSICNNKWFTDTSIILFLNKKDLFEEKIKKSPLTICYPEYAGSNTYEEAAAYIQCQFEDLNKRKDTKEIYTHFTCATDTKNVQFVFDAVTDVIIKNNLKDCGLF", "sequence (P62871 2-340 partner limits assumed)": "as the sequence (P62871 2-340 partner limits assumed) above", "sequence (P63212 2-68 partner limits assumed)": "as the sequence (P63212 2-68 partner limits assumed) above", "assay": "GTPγS binding, peptide 14-induced Gi1 activation", "assay_type": "biochemical", "settings": "high concentrations (≥30 μM) of ACGi2; 10 nM Gi1, 30 μM peptide 14, 4 min", "experimental": "as §3\nPeptide 14 is capable of activating Gi1 and Gi3 as well as Gi2 (Okamoto et al., 1990). The effect of ACGi2 on peptide 14-induced activation of these Gi proteins was examined as follows: 10 nM Gi1 (.quadrature.) or Gi3 (.diamond-solid.) was incubated with 30 μM peptide 14 in the presence of various concentrations of ACGi2 for 4 min, and GTPβS binding was measured. The fractional GTPγS binding to Gi1 or Gi3 at 0% was (in 4 min^-1) 0.38 or 0.30, and that at 100% was 0.54 or 0.63, respectively."}}, "note": "Where no end group is shown, it is not given here."}
{"sequence": "DAVTDVIIKNNLKDC [ACGi2, DAVTDVIIKNNLKDC]", "values": [{"measurement": "maximal inhibition of peptide 14-induced Gi3 activation", "setting": "[1]", "result": "≈ 60%"}, {"measurement": "inhibition at 30 µM", "setting": "[2]", "result": "~75", "unit": "%"}, {"measurement": "IC50", "setting": "[3]", "result": 10, "unit": "µM"}, {"measurement": "IC50", "setting": "[4]", "result": "~30", "unit": "µM"}, {"measurement": "maximal inhibition of peptide 14-induced Gi1 activation", "setting": "[5]", "result": 30, "unit": "%"}]}
